Assay results as given in ChEMBL document CHEMBL1201862, “PubChem BioAssay data set” (2004).
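Step 1: Grow cells in 96-well plates. Step 2: Expose to compound for 48 hours at 5 concentrations. Step 3: Interpolate endpoints linearly; if unreached, use highest concentration. At the GI50, growth is halved.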 Activity calls are given as the source filed them. No stated cut-off is given here; in the data, active = GI50 up to about 1.1 µM and inactive = higher.

Key:
Experiment in all cases: DTP human tumour cell line panel, 48 h
[1] = system: ACHN
[2] = system: NCI-H522
[3] = system: EKVX
[4] = system: Malme-3M
[5] = system: HCC 2998
[6] = system: LOX IMVI
[7] = system: SK-OV-3
[8] = system: K562
[9] = system: HCT-15
[10] = system: KM12
[11] = system: SW-620
[12] = system: IGROV-1
[13] = system: CCRF-CEM
[14] = system: SK-MEL-28
[15] = system: SNB-19
[16] = system: SK-MEL-5
[17] = system: RXF 631
[18] = system: HOP-62
[19] = system: SF-295
[20] = system: DLD-1
[21] = system: HOP-92
[22] = system: A549
[23] = system: COLO 205
[24] = system: UACC-257
[25] = system: TK-10
[26] = system: CAKI-1
[27] = system: M14
[28] = system: 786-0
[29] = system: SK-MEL-2
[30] = system: UO-31
[31] = system: OVCAR-3
[32] = system: NCI-H460
[33] = system: U-251
[34] = system: KM-20L2
[35] = system: SNB-75
[36] = system: MOLT-4
[37] = system: M19-MEL
[38] = system: DMS-273
[39] = system: OVCAR-5
[40] = system: DMS-114
[41] = system: HT-29
[42] = system: HOP-18
[43] = system: RPMI-8226
[44] = system: NCI-H23
[45] = system: HL-60
[46] = system: SF-539
[47] = system: SN12C
[48] = system: UACC-62
[49] = system: RXF 393
[50] = system: OVCAR-4
[51] = system: LXFL 529
[52] = system: OVCAR-8
[53] = system: SF-268
[54] = system: NCI-H226
[55] = system: SNB-78
[56] = system: MCF7
[57] = system: MDA-MB-231
[58] = system: Hs-578T
[59] = system: NCI/ADR-RES
[60] = system: HCT-116
[61] = system: MDA-MB-435
[62] = system: SR
[63] = system: DU-145
[64] = system: A498
[65] = system: PC-3
[66] = system: T47D
[67] = system: MDA-N
[68] = system: BT-549

Measured: GI50

N#Cc1c(N)oc2cc3c(C#N)c(N)oc3cc12
> 100 µM: [9]
inactive: [1] > 100 µM | [2] > 100 µM | [3] > 100 µM | [4] > 100 µM | [5] > 100 µM | [6] > 100 µM | [7] > 100 µM | [8] > 100 µM | [10] > 100 µM | [11] > 100 µM | [12] > 100 µM | [13] > 100 µM | [14] > 100 µM | [15] > 100 µM | [16] > 100 µM | [17] > 100 µM | [18] > 100 µM | [19] > 100 µM | [20] > 100 µM | [21] > 100 µM | [22] > 100 µM | [23] > 100 µM | [24] > 100 µM | [25] > 100 µM | [26] > 100 µM | [27] > 100 µM | [28] > 100 µM | [29] > 100 µM | [30] > 100 µM | [31] > 100 µM | [32] > 100 µM | [33] > 100 µM | [34] > 100 µM | [35] 83.6 µM | [36] > 100 µM | [37] > 100 µM | [38] > 100 µM | [39] > 100 µM | [40] > 100 µM | [41] > 100 µM | [42] > 100 µM | [43] > 100 µM | [44] > 100 µM | [45] > 100 µM | [46] > 100 µM | [47] > 100 µM | [48] > 100 µM | [49] > 100 µM | [50] > 100 µM | [51] > 100 µM | [52] > 100 µM | [53] > 100 µM

Cc1nc2c(nc1C)C(=O)c1ccccc1C2=O
inactive: [1] 10.4 µM | [2] 3.54 µM | [3] 15.4 µM | [5] 6.58 µM | [54] 4.9 µM | [7] 34.5 µM | [55] 26.9 µM | [8] 7.67 µM | [56] 1.36 µM | [10] 5.69 µM | [11] 2.98 µM | [12] 7.96 µM | [57] 7.55 µM | [13] 8.55 µM | [58] 2.14 µM | [14] 1.84 µM | [15] 5.37 µM | [59] 2.87 µM | [17] 11.9 µM | [18] 5.2 µM | [19] 1.48 µM | [60] 4.65 µM | [20] 14.9 µM | [21] 18.1 µM | [22] 1.25 µM | [23] 2.78 µM | [24] 1.32 µM | [25] 20.6 µM | [26] 24.4 µM | [28] 8.38 µM | [29] 1.24 µM | [30] 11.7 µM | [31] 2.68 µM | [33] 6.55 µM | [34] 17.7 µM | [35] 2.64 µM | [36] 11.8 µM | [62] 8.43 µM | [63] 1.36 µM | [38] 3.41 µM | [39] 4.97 µM | [40] 9.64 µM | [41] 4.46 µM | [64] 3.74 µM | [42] 3.29 µM | [43] 11.1 µM | [45] 3.98 µM | [46] 4.6 µM | [65] 3.24 µM | [47] 2.48 µM | [49] 15.4 µM | [66] 2.99 µM | [50] 5.36 µM | [51] 24.4 µM | [52] 7.53 µM | [68] 1.35 µM | [53] 10.2 µM
2.58 µM: [9]
active: [4] 0.237 µM | [6] 1.05 µM | [16] 0.188 µM | [27] 0.871 µM | [32] 0.923 µM | [61] 0.204 µM | [37] 0.258 µM | [44] 0.5 µM | [48] 0.859 µM | [67] 0.245 µM
